Key:
Human mTOR (FLAG-TOR) = molecular target: T1, Human mTOR (FLAG-TOR) (Homo sapiens, UniProt P42345); assay: Human mTOR kinase assay with purified enzyme, DELFIA format; type: biochemical; conditions: purified human mTOR enzyme, DELFIA format
T1 construct: FLAG
Procedure: Enzymes are first diluted in kinase assay buffer (10 mM HEPES (pH 7.4), 50 mM NaCl, 50 mM β-glycerophosphate, 10 mM MnCl2, 0.5 mM DTT, 0.25 mM microcystin LR, and 100 mg/mL BSA). To each well, 12 μL of the diluted enzyme is mixed briefly with 0.5 μL test inhibitor or control vehicle dimethylsulfoxide (DMSO). […] The reaction plate is incubated for 2 hours (linear at 1-6 hours) at room temperature with gentle shaking and then terminated by adding 25 μL Stop buffer (20 mM HEPES (pH 7.4), 20 mM EDTA, 20 mM EGTA). […] The DELFIA Assay buffer and Enhancement solution can be purchased from PerkinElmer. 45 μL of the terminated kinase reaction mixture is transferred to a MaxiSorp plate (Nunc) containing 55 μL PBS. The His6-S6K is allowed to attach for 2 hours after which the wells are aspirated and washed once with PBS. 100 μL of DELFIA Assay buffer with 40 ng/mL Eu—P(T389)-S6K antibody is added. The antibody binding is continued for 1 hour with gentle agitation. The wells are then aspirated and washed 4 times with PBS containing 0.05% Tween-20 (PBST). 100 μL of DELFIA Enhancement solution is added to each well and the plates are read in a PerkinElmer Victor model plate reader. Data obtained is used to calculate enzymatic activity and enzyme inhibition by potential inhibitors.

PI3K [1] = molecular target: T2, PI3K (Homo sapiens, UniProt P42336); assay: Fluorescence polarization assay for PI3K; type: biochemical; conditions: PI3 Kinase α isoform, fluorescence polarization; read-out: PI3 Kinase α IC50
T2 construct: PI3 Kinase α IC50; other: PI3 Kinase α; other: PI3 Kinase α isoform, fluorescence polarization
Procedure: (§1) This assay is used to determine the IC50 of compounds of the present invention as it identifies inhibitors of PI3 kinase by measuring inhibition.
(§2) The assay is run by placing 5 μL of diluted enzyme per well, then 5 μL of diluted compound (or 9.5 μL enzyme then 0.5 μL compound in DMSO) is added and mixed. Then, 10 μL substrate is added to start the reaction. The samples are incubated 30-60 minutes, then the reaction is stopped by adding 20 μL stop/detector mix. PI3K is diluted with reaction buffer (e.g., 5 μL or 7.5 μL PI3K into 620 μL reaction buffer), and 5 μL of diluted enzyme is used per well. 5 μL reaction buffer or drug diluted in buffer (e.g., 4 μL/100 so final DMSO is 1% in reaction) is added to each. Pipetting up and down mixes the samples. Alternatively, the enzyme can be diluted to 1215 μL. In this case 9.8 μL is added per well and 0.2 μL compound is added in DMSO. To prepare 1 mL of substrate solution, 955 μL reaction buffer, 40 μL PIP2, and 2.5 μL ATP are mixed. 10 μL of substrate is added to each well to start the reaction.
(§3) Stop/detector mix is prepared by mixing 4 μL Red detector and 1.6 μL or 2.0 μL GST-GRP with 1 mL Stop buffer, which results in 10 nM probe and 70 nM GST-GRP). 20 μL of the stop/detector mix is added to each well to stop the reaction. The plates are read after 30-90 minutes keeping the red probe solutions dark. For the zero time point, stop/detector mix is added to the enzyme just before adding substrate. For an extra control, stop/detector mix is added to buffer (no enzyme) and substrate or to just buffer (no substrate). […] Plates are read on machines with filters for Tamra. The units are mP with no enzyme controls reading app 190-220 mP units. Fully active enzyme reduces fluorescence polarization down to 70-100 mP after 30 minutes.

PI3K [2] = molecular target: T3, PI3K (Homo sapiens, UniProt P48736); assay: Fluorescence polarization assay for PI3K; type: biochemical; conditions: PI3 Kinase γ isoform, fluorescence polarization; read-out: PI3 Kinase γ IC50
T3 construct: PI3 Kinase γ IC50; other: PI3 Kinase γ; other: PI3 Kinase γ isoform, fluorescence polarization
Procedure: as §1, §2, §3

prostate line LNCap = assay: In vitro cell culture growth assay (MTS), LNCap; type: cell-based; conditions: Homo sapiens, LNCaP, 72 h, LNCap cells, three days after drug treatment
Procedure: (§4) Human tumor cell lines used include prostate lines LNCap and PC3MM2, breast lines MDA468, MCF7, renal line HTB44 (A498), colon line HCT116, and ovarian line OVCAR3. Cells were plated in 96-well culture plates. One day following plating, the inhibitors were added to cells. Three days after drug treatment, viable cell densities were determined by metabolic conversion (by viable cells) of the dye MTS, a well-established cell proliferation assay. The assays were performed using an assay kit purchased from Promega Corp. (Madison, Wis.) following the protocol supplied with the kit. The MTS assay results were read in a 96-well plate reader by measuring absorbance at 490 nm. The effect of each treatment was calculated as percent of control growth relative to the vehicle-treated cells grown in the same culture plate.

breast line MDA468 = assay: In vitro cell culture growth assay (MTS), MDA468; type: cell-based; conditions: Homo sapiens, 72 h, MDA468 cells, three days after drug treatment
Procedure: as §4

T3 sequence (P48736 whole entry, canonical isoform): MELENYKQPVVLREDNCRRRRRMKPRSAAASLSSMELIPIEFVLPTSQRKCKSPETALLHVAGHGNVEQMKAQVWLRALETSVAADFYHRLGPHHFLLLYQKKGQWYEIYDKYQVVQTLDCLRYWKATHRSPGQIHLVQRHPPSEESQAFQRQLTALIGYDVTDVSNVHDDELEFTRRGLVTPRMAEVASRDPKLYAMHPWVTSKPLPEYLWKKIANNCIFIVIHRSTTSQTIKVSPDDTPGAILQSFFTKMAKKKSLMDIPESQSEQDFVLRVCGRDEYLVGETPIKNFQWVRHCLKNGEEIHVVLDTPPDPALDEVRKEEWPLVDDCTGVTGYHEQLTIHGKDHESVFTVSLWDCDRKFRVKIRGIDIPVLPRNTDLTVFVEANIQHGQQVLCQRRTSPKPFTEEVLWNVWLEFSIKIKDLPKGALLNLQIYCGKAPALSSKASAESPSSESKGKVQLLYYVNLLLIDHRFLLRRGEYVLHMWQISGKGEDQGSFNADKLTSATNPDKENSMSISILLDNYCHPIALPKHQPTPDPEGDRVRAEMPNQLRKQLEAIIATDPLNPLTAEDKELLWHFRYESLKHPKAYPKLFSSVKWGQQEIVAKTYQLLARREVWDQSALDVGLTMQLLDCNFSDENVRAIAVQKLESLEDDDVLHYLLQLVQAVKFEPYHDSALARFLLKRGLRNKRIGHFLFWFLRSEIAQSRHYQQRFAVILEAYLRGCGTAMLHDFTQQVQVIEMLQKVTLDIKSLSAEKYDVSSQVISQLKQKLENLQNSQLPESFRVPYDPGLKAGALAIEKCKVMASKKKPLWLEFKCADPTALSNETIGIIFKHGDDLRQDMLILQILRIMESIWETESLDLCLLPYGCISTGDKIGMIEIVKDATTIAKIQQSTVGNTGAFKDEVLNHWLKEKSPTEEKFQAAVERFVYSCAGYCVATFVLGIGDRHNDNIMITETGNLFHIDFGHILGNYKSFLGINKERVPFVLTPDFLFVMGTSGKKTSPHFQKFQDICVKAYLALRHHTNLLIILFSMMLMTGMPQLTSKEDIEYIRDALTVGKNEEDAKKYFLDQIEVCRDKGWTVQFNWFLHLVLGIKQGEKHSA
T2 sequence (P42336 whole entry, canonical isoform): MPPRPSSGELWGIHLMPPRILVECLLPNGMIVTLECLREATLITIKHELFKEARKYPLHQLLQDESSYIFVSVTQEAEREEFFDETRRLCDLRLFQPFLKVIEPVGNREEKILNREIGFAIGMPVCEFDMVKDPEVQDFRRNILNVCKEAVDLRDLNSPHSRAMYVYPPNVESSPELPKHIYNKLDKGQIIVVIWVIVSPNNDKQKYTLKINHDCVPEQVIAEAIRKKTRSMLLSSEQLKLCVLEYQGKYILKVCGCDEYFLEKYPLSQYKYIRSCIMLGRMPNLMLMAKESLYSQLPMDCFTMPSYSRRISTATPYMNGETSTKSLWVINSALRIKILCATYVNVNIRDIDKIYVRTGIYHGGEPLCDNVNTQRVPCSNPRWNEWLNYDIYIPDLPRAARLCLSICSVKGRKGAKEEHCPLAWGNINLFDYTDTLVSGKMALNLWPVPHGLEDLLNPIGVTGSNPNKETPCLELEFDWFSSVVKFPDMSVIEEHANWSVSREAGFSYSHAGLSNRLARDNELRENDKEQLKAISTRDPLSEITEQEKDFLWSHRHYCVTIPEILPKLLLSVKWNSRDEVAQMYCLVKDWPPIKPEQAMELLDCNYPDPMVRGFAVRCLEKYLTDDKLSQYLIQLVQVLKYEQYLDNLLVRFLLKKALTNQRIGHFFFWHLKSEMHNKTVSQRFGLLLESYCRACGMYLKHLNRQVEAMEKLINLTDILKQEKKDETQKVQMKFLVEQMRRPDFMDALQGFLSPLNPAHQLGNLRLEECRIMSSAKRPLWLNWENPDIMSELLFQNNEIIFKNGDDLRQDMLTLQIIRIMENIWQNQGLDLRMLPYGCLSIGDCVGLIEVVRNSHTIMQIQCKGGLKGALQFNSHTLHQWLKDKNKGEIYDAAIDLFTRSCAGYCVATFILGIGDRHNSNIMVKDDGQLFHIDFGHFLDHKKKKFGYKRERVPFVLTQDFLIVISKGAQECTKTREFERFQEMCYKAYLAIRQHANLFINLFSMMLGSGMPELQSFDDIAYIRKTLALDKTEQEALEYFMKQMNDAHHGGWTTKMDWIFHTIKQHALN

Row | IC50 (Human mTOR (FLAG-TOR)) [nM] | IC50 (PI3K [1]) [nM] | IC50 (PI3K [2]) [nM] | IC50 (prostate line LNCap) [nM] | Structure (SMILES) | IC50 (breast line MDA468) [nM]
1 | 0.4 | 3630 | > 10000 | 5 | O=C(Nc1ccc(-c2nc(N3CC4CCC(C3)O4)c3cnn([C@H]4CC[C@H](O)CC4)c3n2)cc1)NC1CC1 (relative stereo) [Example 403, 1-cyclopropyl-3-{4-[1-(trans-4-hydroxycyclohexyl)-4-(8-oxa-3-azabicyclo[3.2.1]oct-3-yl)-1H-pyrazolo[3,4-d]pyrimidin-6-yl]phenyl}urea] | 180
2 | 0.19 | 93 | 1140 | < 1 | CN1CCN(c2ccc(NC(=O)Nc3ccc(-c4nc(N5CC6CCC(C5)O6)c5cnn([C@H]6CC[C@H](O)CC6)c5n4)cc3)cc2)CC1 (relative stereo) [Example 404, 1-{4-[1-(trans-4-hydroxycyclohexyl)-4-(8-oxa-3-azabicyclo[3.2.1]oct-3-yl)-1H-pyrazolo[3,4-d]pyrimidin-6-yl]phenyl}-3-[4-(4-methylpiperazin-1-yl)phenyl]urea] | 18
3 | 0.33 | 107 | 1360 | < 1 | CN1CCN(c2ccc(NC(=O)Nc3ccc(-c4nc(N5CC6CCC(C5)O6)c5cnn([C@H]6CC[C@@H](O)CC6)c5n4)cc3)cc2)CC1 (relative stereo) [Example 405, 1-{4-[1-(cis-4-hydroxycyclohexyl)-4-(8-oxa-3-azabicyclo[3.2.1]oct-3-yl)-1H-pyrazolo[3,4-d]pyrimidin-6-yl]phenyl}-3-[4-(4-methylpiperazin-1-yl)phenyl]urea] | 20
4 | 0.203 | 353 | 2220 | 1 | O=C(Nc1ccncc1)Nc1ccc(-c2nc(N3CC4CCC(C3)O4)c3cnn(C4CCC5(CCCO5)CC4)c3n2)cc1 (single isomer, unassigned) [Example 312, 1-(4-{4-(8-oxa-3-azabicyclo[3.2.1]oct-3-yl)-1-[(5r,8r)-1-oxaspiro[4.5]dec-8-yl]-1H-pyrazolo[3,4-d]pyrimidin-6-yl}phenyl)-3-pyridin-4-ylurea] | 12
5 | 0.365 | 581 | 1450 | 1 | CN1CCN(c2ccc(NC(=O)Nc3ccc(-c4nc(N5CC6CCC(C5)O6)c5cnn(C6CCC7(CCCO7)CC6)c5n4)cc3)cc2)CC1 (single isomer, unassigned) [Example 313, 1-[4-(4-methylpiperazin-1-yl)phenyl]-3-(4-{4-(8-oxa-3-azabicyclo[3.2.1]oct-3-yl)-1-[(5r,8r)-1-oxaspiro[4.5]dec-8-yl]-1H-pyrazolo[3,4-d]pyrimidin-6-yl}phenyl)urea] | 15
6 | 0.455 | 511 | 2020 | 1 | O=C(Nc1ccc(-c2nc(N3CC4CCC(C3)O4)c3cnn(C4CCC5(CCCO5)CC4)c3n2)cc1)Nc1ccc(N2CCNCC2)cc1 (single isomer, unassigned) [Example 314, 1-(4-{4-(8-oxa-3-azabicyclo[3.2.1]oct-3-yl)-1-[(5r,8r)-1-oxaspiro[4.5]dec-8-yl]-1H-pyrazolo[3,4-d]pyrimidin-6-yl}phenyl)-3-(4-piperazin-1-ylphenyl)urea] | 15
7 | 0.8 | 5600 | 2060 | 10 | O=C(Nc1ccc(-c2nc(N3CC4CCC(C3)O4)c3cnn(C4CCC5(CCCO5)CC4)c3n2)cc1)OCCO (single isomer, unassigned) [Example 315, 2-hydroxyethyl (4-{4-(8-oxa-3-azabicyclo[3.2.1]oct-3-yl)-1-[(5r,8r)-1-oxaspiro[4.5]dec-8-yl]-1H-pyrazolo[3,4-d]pyrimidin-6-yl}phenyl)carbamate] | 220

Reference: patent US8129371B2, “Thienopyrimidine and pyrazolopyrimidine compounds and their use as mTOR kinase and PI3 kinase inhibitors” (Wyeth LLC, priority 2007, dated 2012)
